Numbered stars: 1 amine (or outer) side, 2 acyl side, 3 side chain; on linkers, the order of the positions; unused ones are H or OH. Bridge positions count the residues as written; N and C are the ends. Side chains are listed from the residue outwards. Peptide text beside a SMILES is read from it. * marks the point of attachment. C20 diacid = O=C(O)CCCCCCCCCCCCCCCCCCC(=O)*; γGlu = O=C(O)[C@H](CCC(=O)[*:2])N[*:1]
Key:
[1] = biological target: T1, human amylin 3(a) receptor (human calcitonin receptor + RAMP-3) in BHK570 cells (Homo sapiens, UniProt O60896+P30988); assay: ASSAY (II)a functional assay, human amylin receptor (CRE luciferase); type: cell-based; settings: for EC50: human amylin receptor functional potency, assay (II), read-out: hAmylin-R funct. EC50
T1 construct: expressed in transfected cells
In short: (§1)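 Functional agonism was measured by CRE-luciferase reporter luminescence in BHK cells bearing calcitonin receptor, or calcitonin receptor plus RAMP-3 as the amylin 3(a) receptor. Stimulation lasted 3 hours at 37° C.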

Male Wistar rats = assay: ASSAY (XII) effect from single subcutaneous administration on plasma calcium in rats; type: in vivo, rat; settings: for Plasma calcium red (%) 0-12 h (maximal): single s.c., compared to vehicle; for suppression of plasma calcium level relative to vehicle: monitored over 24 hours
In short: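 Male Wistar rats (~250 g), groups of five, received a single subcutaneous dose at time 0. Blood drawn at −15 min, 1, 2, 4, 7, 12 and 24 h; total calcium measured in heparin plasma, reported as mean±SEM.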

Male Sprague-Dawley rats = assay: ASSAY (XI) single subcutaneous administration, food intake monitored for 48 hours in rats; type: in vivo, rat; settings: for Food intake red (%) 0-24 h / Food intake red (%) 24-48 h: single s.c., compared to vehicle
In short: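 Male Sprague-Dawley rats from Taconic Europe, weighing about 250 g on the test day, were singly housed in an online food intake monitoring system (Ellegaard MBRose, Denmark). Before the study they were acclimatized to a reversed light cycle, with lights on from 10 PM to 10 AM. Each rat then received one subcutaneous dose of the analogue, and data are reported as mean±SEM.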

[2] = biological target: T2, human amylin receptor (membranes from Amylin 3(a)/CRE-luc cells) (Homo sapiens, UniProt O60896+P30988); assay: ASSAY (V) binding to the human amylin receptor (SPA, 125I-rat amylin); settings: for IC50: Table 4, read-out: hAmylin-R bind IC50;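 on all read-outs here: competition binding of cell membranes (35 ng/µL) mixed with SPA beads in 384-well plates at 40 µL total volume, read by scintillation counting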
T2 construct: expressed in transfected cells
T2 sequence (P30988 25-474): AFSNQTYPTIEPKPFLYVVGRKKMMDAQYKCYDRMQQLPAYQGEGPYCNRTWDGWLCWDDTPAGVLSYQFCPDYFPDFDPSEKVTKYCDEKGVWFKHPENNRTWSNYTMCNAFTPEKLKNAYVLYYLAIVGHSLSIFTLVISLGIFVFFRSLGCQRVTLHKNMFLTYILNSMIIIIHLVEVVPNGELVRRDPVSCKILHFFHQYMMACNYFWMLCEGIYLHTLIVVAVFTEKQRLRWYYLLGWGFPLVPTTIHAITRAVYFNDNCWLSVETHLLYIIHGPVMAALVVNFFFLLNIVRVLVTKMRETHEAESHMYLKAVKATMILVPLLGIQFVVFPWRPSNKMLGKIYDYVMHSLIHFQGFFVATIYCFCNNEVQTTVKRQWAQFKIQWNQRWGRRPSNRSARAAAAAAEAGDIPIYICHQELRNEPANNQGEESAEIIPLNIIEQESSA
T2 sequence (O60896 24-148 partner): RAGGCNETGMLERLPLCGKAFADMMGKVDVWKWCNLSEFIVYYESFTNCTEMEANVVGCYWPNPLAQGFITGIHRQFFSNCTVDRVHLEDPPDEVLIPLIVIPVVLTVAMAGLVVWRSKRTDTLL

[3] = ASSAY (X) pK, determination of T½ in rat; type: in vivo; settings: male, Sprague Dawley, plasma, iv, 20 nmol/kg
[4] = biological target: T3, human calcitonin receptor (Homo sapiens, UniProt P30988); assay: ASSAY (VII) binding to the human calcitonin receptor (SPA, 125I-Calcitonin); settings: read-out: hCTR bind IC50;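 further: cell membranes (35 ng/µL) combined with SPA beads in 40 µL of pH 7.4 Hepes buffer, 384-well format, signal counted on a TopCounter instrument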
T3 construct: expressed in transfected cells
T3 sequence (P30988 25-474): T2 sequence (P30988 25-474)
Description: Membranes were prepared in the following way; the cells were rinsed with PBS and incubated with Versene for approximately 5 min before harvesting. The cells were flushed with PBS and the cell-suspension was centrifuged for 5 min at 1000 rpm. […] The resulting pellet was resuspended in buffer 2 and protein concentration was measured (BCA protein Assay, Pierce). The homogenate was kept cold during the whole procedure. The membranes were kept at −80° C. until use. Assay was performed in a 384 well Optiplate (PerkinElmer) in a total volume of 40 ul. Membranes were mixed with SPA beads. Final concentration of membranes 35 ng/μL final and Final concentration of SPA beads was 0.05 mg/well. Test-compounds were dissolved in DMSO and further diluted in assay buffer (50 mM Hepes, pH 7.4, 1 mM CaCl2, 5 mM MgCl2, 0.1% OA and 0.02% Tween20). […] Samples were analyzed on TopCounter™ (Packard).

[5] = biological target: T4, human calcitonin (a) receptor in BHK570 cells (Homo sapiens, UniProt P30988); assay: ASSAY (II)a functional assay, human calcitonin receptor (CRE luciferase); type: cell-based; settings: read-out: hCTR funct. EC50
T4 construct: expressed in transfected cells
T4 sequence (P30988 25-474): T2 sequence (P30988 25-474)
In short: as §1

[6] = hCTR funct. EC50 divided by hAmylin-R funct. EC50
[7] = hCTR funct. EC50 over hAmylin-R funct. EC50
[8] = human functional selectivity: hCTR funct. EC50 / hAmylin-R funct. EC50
[9] = Table 5, selectivity, hCTR bind IC50 / hAmylin-R bind IC50
[10] = Table 5a, selectivity, hCTR bind IC50 / hAmylin-R bind IC50
[11] = Table 5b, selectivity, hCTR bind IC50 / hAmylin-R bind IC50
[12] = Table 5c, selectivity, hCTR bind IC50 / hAmylin-R bind IC50
[13] = Table 7, human binding selectivity, included for comparison
[14] = Table 7a (preferred compounds), human binding selectivity, included for comparison
[15] = ratio of human calcitonin receptor binding IC50 to human amylin receptor binding IC50

CC[C@H](C)[C@H](NC(=O)[C@H](C)NC(=O)CNC(=O)[C@H](Cc1ccccc1)NC(=O)[C@H](CC(N)=O)NC(=O)[C@@H]1CCCN1C(=O)[C@H](CO)NC(=O)[C@H](CO)NC(=O)[C@H](Cc1c[nH]cn1)NC(=O)[C@H](CCCNC(=N)N)NC(=O)[C@H](CC(C)C)NC(=O)[C@H](Cc1ccccc1)NC(=O)[C@H](CC(=O)O)NC(=O)[C@H](C)NC(=O)[C@H](CC(C)C)NC(=O)[C@H](CCCNC(=N)N)NC(=O)[C@H](CCC(N)=O)NC(=O)[C@@H](NC(=O)[C@H](C)NC(=O)[C@@H]1CSSC[C@H](NC(=O)[C@@H](N)CCCCNC(=O)CC[C@H](NC(=O)CC[C@H](NC(=O)CCCCCCCCCCCCCCCCCCC(=O)O)C(=O)O)C(=O)O)C(=O)N[C@@H](CC(N)=O)C(=O)N[C@@H]([C@@H](C)O)C(=O)N[C@@H](C)C(=O)N[C@@H]([C@@H](C)O)C(=O)N1)[C@@H](C)O)C(=O)N1CCC[C@H]1C(=O)N[C@@H](CO)C(=O)N[C@@H](CO)C(=O)N[C@H](C(=O)N[C@@H](CC(N)=O)C(=O)N[C@H](C(=O)NCC(=O)N[C@@H](CO)C(=O)N[C@@H](CC(=O)O)C(=O)N[C@H](C(=O)N[C@@H](Cc1ccc(O)cc1)C(N)=O)[C@@H](C)O)C(C)C)[C@@H](C)O [Example 2] (H-K([γGlu-γGlu-C20 diacid])CNTATCATQRLADFLRHSSPNFGAIPSSTNVGSDTY-NH2; disulfide 2-7; N-terminus assumed)
Ratio hCT/hAmylin funct. [1, 6]: 16.4
Ratio hCT/hAmylin funct. [1, 7]: 16.4
Ratio hCT/hAmylin funct. [1, 8]: 16.4
Plasma calcium red (%) 0-12 h (maximal) (Male Wistar rats; 100 nmol/kg): 9%
suppression of plasma calcium level relative to vehicle (Male Wistar rats; single subcutaneous 100 nmol/kg): does not trigger a notable suppression of the calcium level
Food intake red (%) 0-24 h (Male Sprague-Dawley rats; 3 nmol/kg): 39%
Food intake red (%) 24-48 h (Male Sprague-Dawley rats; 3 nmol/kg): 10%
Food intake red (%) 0-24 h (Male Sprague-Dawley rats; 30 nmol/kg): 72%
Food intake red (%) 24-48 h (Male Sprague-Dawley rats; 30 nmol/kg): 62%
Ratio hCT/hAmylin binding [2, 9]: 47.5
Ratio hCT/hAmylin binding [2, 10]: 47.5
Ratio hCT/hAmylin binding [2, 11]: 47.5
Ratio hCT/hAmylin binding [2, 12]: 47.5
Ratio hCT/hAmylin binding [2, 13]: 47.5
Ratio hCT/hAmylin binding [2, 14]: 47.5
Ratio hCT/hAmylin binding [2, 15]: 47.5
half-life [3]: 28 h

CC[C@H](C)[C@H](NC(=O)[C@H](C)NC(=O)CNC(=O)[C@H](Cc1ccccc1)NC(=O)[C@H](CC(N)=O)NC(=O)[C@@H]1CCCN1C(=O)[C@H](CO)NC(=O)[C@H](CO)NC(=O)[C@H](Cc1c[nH]cn1)NC(=O)[C@H](CCCNC(=N)N)NC(=O)[C@H](CC(C)C)NC(=O)[C@H](Cc1ccccc1)NC(=O)[C@H](CCCNC(=N)N)NC(=O)[C@H](C)NC(=O)[C@H](CC(C)C)NC(=O)[C@H](CCCNC(=N)N)NC(=O)[C@H](CCC(N)=O)NC(=O)[C@@H](NC(=O)[C@H](C)NC(=O)[C@@H]1CSSC[C@H](NC(=O)[C@@H](N)CCCCNC(=O)CC[C@H](NC(=O)CCCCCCCCCCCCCCCCCCC(=O)O)C(=O)O)C(=O)N[C@@H](CC(N)=O)C(=O)N[C@@H]([C@@H](C)O)C(=O)N[C@@H](C)C(=O)N[C@@H]([C@@H](C)O)C(=O)N1)[C@@H](C)O)C(=O)N1CCC[C@H]1C(=O)N[C@@H](CO)C(=O)N[C@@H](CO)C(=O)N[C@H](C(=O)N[C@@H](CC(N)=O)C(=O)N[C@H](C(=O)NCC(=O)N1CCC[C@H]1C(=O)N[C@@H](CC(N)=O)C(=O)N[C@H](C(=O)N[C@@H](Cc1ccc(O)cc1)C(N)=O)[C@@H](C)O)C(C)C)[C@@H](C)O [Example 65] (H-K([γGlu-C20 diacid])CNTATCATQRLARFLRHSSPNFGAIPSSTNVGPNTY-NH2; disulfide 2-7 (inferred); N-terminus assumed)
IC50 [4]: 53.5 nM
Ratio hCT/hAmylin funct. [1, 6]: 38.6
Ratio hCT/hAmylin funct. [1, 7]: 38.6
EC50 [1]: 0.242 nM
Ratio hCT/hAmylin funct. [1, 8]: 38.6
EC50 [5]: 9.33 nM
IC50 [2]: 0.649 nM
Ratio hCT/hAmylin binding [2, 9]: 82.4
Ratio hCT/hAmylin binding [2, 10]: 82.4
Ratio hCT/hAmylin binding [2, 11]: 82.4
Ratio hCT/hAmylin binding [2, 12]: 82.4
Ratio hCT/hAmylin binding [2, 13]: 82.4
Ratio hCT/hAmylin binding [2, 14]: 82.4
Ratio hCT/hAmylin binding [2, 15]: 82.4
half-life [3]: 3 h

CC[C@H](C)[C@H](NC(=O)[C@H](C)NC(=O)CNC(=O)[C@H](Cc1ccccc1)NC(=O)[C@H](CC(N)=O)NC(=O)[C@@H]1CCCN1C(=O)[C@H](CO)NC(=O)[C@H](CO)NC(=O)[C@H](Cc1c[nH]cn1)NC(=O)[C@H](CCCNC(=N)N)NC(=O)[C@H](CC(C)C)NC(=O)[C@H](Cc1ccccc1)NC(=O)[C@H](CCC(=O)O)NC(=O)[C@H](C)NC(=O)[C@H](CC(C)C)NC(=O)[C@H](CCCNC(=N)N)NC(=O)[C@H](CCC(N)=O)NC(=O)[C@@H](NC(=O)[C@H](C)NC(=O)[C@@H]1CSSC[C@H](NC(=O)[C@@H](N)CCCCNC(=O)CC[C@H](NC(=O)CC[C@H](NC(=O)CCCCCCCCCCCCCCCCCCC(=O)O)C(=O)O)C(=O)O)C(=O)N[C@@H](CC(N)=O)C(=O)N[C@@H]([C@@H](C)O)C(=O)N[C@@H](C)C(=O)N[C@@H]([C@@H](C)O)C(=O)N1)[C@@H](C)O)C(=O)N1CCC[C@H]1C(=O)N[C@@H](CO)C(=O)N[C@@H](CO)C(=O)N[C@H](C(=O)N[C@@H](CC(N)=O)C(=O)N[C@H](C(=O)NCC(=O)N[C@@H](CO)C(=O)N[C@@H](CCCNC(=N)N)C(=O)N[C@H](C(=O)N[C@@H](Cc1ccc(O)cc1)C(N)=O)[C@@H](C)O)C(C)C)[C@@H](C)O [Example 89] (H-K([γGlu-γGlu-C20 diacid])CNTATCATQRLAEFLRHSSPNFGAIPSSTNVGSRTY-NH2; disulfide 2-7 (inferred); N-terminus assumed)
IC50 [4]: 32.5 nM
Ratio hCT/hAmylin funct. [1, 6]: 27.8
Ratio hCT/hAmylin funct. [1, 7]: 27.8
EC50 [1]: 0.404 nM
Ratio hCT/hAmylin funct. [1, 8]: 27.8
EC50 [5]: 11.2 nM
Plasma calcium red (%) 0-12 h (maximal) (Male Wistar rats; 30 nmol/kg): 7%
suppression of plasma calcium level relative to vehicle (Male Wistar rats; single subcutaneous 30 nmol/kg): None of the example compounds at 30 nmol/kg trigger a notable suppression of the calcium level
suppression of plasma calcium level relative to vehicle (Male Wistar rats; single subcutaneous 1000 nmol/kg): induces a more pronounced suppression of the calcium level
Food intake red (%) 0-24 h (Male Sprague-Dawley rats; 30 nmol/kg): 46%
Food intake red (%) 24-48 h (Male Sprague-Dawley rats; 30 nmol/kg): 37%
food intake monitored over 48 hours (Male Sprague-Dawley rats; single subcutaneous administration, 30 nmol/kg, versus vehicle): reduce food intake
IC50 [2]: 1.16 nM
Ratio hCT/hAmylin binding [2, 9]: 28.0
Ratio hCT/hAmylin binding [2, 10]: 28.0
Ratio hCT/hAmylin binding [2, 11]: 28.0
Ratio hCT/hAmylin binding [2, 12]: 28.0
Ratio hCT/hAmylin binding [2, 13]: 28.0
Ratio hCT/hAmylin binding [2, 14]: 28.0
Ratio hCT/hAmylin binding [2, 15]: 28.0
half-life [3]: 23 h

Reference: patent US9023789B2, “Amylin analogs and pharmaceutical compositions thereof” (Novo Nordisk A/S, priority 2012, dated 2015)
